Experimental data taken from article PMC6430017, “Structural and chemical insights into the covalent-allosteric inhibition of the protein kinase Akt” (Chemical Science, 2019).

Assays:
Experiment in all cases: SelectScreen Z'LYTE kinase profiling
Format in all cases: biochemical
Settings in all cases: ATP at apparent KM
[1] = target: T1, SGKL (SGK3) (Homo sapiens, UniProt Q96BR1)
T1 sequence (Q96BR1 1-496): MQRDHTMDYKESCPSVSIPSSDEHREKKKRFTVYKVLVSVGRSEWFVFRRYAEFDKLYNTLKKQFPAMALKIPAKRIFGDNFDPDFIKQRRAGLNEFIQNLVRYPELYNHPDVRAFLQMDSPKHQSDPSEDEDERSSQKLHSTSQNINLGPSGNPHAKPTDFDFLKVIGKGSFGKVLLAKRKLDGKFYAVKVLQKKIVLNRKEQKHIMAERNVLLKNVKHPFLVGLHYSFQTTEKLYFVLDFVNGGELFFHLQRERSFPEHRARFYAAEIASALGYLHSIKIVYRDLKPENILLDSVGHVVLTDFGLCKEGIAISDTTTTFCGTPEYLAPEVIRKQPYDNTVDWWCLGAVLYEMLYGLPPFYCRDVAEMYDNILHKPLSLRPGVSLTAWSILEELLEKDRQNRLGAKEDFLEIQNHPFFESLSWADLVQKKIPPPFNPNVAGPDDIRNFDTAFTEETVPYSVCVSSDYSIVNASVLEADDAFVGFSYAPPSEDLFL
Experimental: (§1) protein kinases at a compound concentration of 1 µM. Measurements were performed in duplicates
(§2) and at the particular apparent ATP KM of each individual kinase employing the activity based Z’LYTE®
(§3) kinase assay of the SelectScreen® Kinase Profiling Services (ThermoFisher Scientific).
(§4) kinases at a compound concentration of 1 µM. Measurements were performed in duplicates and at
(§5) the particular apparent ATP KM of each individual kinase employing the activity based Z’LYTE® kinase
(§6) assay of the SelectScreen® Kinase Profiling Services (ThermoFisher Scientific).

[2] = target: T2, EPHB4 (Homo sapiens, UniProt P54760)
T2 sequence (P54760 16-987): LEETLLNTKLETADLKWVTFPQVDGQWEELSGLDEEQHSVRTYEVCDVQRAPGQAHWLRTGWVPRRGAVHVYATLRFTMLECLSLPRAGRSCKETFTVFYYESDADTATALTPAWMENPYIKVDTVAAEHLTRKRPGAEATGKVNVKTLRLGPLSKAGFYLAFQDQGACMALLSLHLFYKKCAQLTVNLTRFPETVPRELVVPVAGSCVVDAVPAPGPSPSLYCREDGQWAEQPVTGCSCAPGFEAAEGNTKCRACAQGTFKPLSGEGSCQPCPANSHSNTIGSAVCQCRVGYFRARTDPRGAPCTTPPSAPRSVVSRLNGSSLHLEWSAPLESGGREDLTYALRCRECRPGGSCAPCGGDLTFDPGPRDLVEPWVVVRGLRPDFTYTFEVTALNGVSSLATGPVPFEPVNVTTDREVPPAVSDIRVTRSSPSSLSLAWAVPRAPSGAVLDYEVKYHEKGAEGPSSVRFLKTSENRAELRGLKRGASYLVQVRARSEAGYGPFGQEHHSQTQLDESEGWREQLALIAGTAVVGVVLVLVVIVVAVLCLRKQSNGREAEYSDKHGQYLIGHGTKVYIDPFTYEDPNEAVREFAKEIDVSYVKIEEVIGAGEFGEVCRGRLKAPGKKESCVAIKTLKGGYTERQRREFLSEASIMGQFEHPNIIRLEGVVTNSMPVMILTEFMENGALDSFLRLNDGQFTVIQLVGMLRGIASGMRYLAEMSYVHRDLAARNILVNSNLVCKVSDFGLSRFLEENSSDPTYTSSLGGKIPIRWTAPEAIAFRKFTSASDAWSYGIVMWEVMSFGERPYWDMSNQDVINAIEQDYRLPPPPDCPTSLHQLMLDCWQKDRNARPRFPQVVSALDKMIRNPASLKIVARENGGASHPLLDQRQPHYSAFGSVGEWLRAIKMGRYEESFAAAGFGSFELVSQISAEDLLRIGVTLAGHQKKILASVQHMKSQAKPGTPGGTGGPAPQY
Experimental: as §1, §2, §3, §4, §5, §6

[3] = target: RPS6KA4 (MSK2) (Homo sapiens, UniProt O75676)
Experimental: as §1, §2, §3, §4, §5, §6

[4] = target: MAPKAPK2 (Homo sapiens, UniProt P49137)
Experimental: as §1, §2, §3, §4, §5, §6

[5] = target: PRKCB2 (PKC beta II) (Homo sapiens, UniProt P05771)
Experimental: as §1, §2, §3, §4, §5, §6

[6] = target: GRK4 (Homo sapiens, UniProt P32298)
Experimental: as §1, §2, §3, §4, §5, §6

[7] = target: TEK (Tie2) (Homo sapiens, UniProt Q02763)
Experimental: as §1, §2, §3, §4, §5, §6

[8] = target: GRK5 (Homo sapiens, UniProt P34947)
Experimental: as §1, §2, §3, §4, §5, §6

[9] = target: T3, DCAMKL2 (DCK2) (Homo sapiens, UniProt Q8N568)
T3 sequence (Q8N568 1-766): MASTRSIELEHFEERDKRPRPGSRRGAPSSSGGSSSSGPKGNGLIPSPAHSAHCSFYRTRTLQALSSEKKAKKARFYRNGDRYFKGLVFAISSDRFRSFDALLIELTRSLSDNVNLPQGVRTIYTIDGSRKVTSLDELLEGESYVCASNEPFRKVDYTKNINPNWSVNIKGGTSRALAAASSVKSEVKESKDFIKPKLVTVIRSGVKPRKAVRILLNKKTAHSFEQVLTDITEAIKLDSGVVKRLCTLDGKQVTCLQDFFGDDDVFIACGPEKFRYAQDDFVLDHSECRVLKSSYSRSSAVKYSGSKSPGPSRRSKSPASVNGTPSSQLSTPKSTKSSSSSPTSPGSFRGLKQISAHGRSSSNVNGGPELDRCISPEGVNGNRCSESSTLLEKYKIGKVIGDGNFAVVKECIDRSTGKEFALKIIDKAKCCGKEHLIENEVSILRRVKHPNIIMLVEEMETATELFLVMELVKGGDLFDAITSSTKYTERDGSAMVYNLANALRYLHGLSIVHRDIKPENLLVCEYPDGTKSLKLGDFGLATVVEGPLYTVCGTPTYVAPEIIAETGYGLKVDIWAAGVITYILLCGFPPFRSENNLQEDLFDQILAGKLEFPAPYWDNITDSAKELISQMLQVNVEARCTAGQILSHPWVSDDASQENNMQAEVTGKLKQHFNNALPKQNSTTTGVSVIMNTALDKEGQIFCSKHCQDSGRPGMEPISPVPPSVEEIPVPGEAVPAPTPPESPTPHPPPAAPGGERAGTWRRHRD
Experimental: as §1, §2, §3, §4, §5, §6

[10] = target: LCK (Homo sapiens, UniProt P06239)
Experimental: as §1, §2, §3, §4, §5, §6

[11] = target: CDK1/cyclin B (Homo sapiens, UniProt P06493)
Chain of CDK1/cyclin B (P06493 whole entry): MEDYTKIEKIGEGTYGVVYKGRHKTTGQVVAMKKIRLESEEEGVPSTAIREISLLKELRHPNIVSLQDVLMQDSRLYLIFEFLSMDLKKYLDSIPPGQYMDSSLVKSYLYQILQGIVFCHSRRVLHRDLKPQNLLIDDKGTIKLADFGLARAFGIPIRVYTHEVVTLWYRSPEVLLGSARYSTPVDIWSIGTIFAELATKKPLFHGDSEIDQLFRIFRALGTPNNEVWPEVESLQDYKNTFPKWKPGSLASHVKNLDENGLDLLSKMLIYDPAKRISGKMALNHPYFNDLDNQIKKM
Chain of CDK1/cyclin B (P14635 whole entry partner): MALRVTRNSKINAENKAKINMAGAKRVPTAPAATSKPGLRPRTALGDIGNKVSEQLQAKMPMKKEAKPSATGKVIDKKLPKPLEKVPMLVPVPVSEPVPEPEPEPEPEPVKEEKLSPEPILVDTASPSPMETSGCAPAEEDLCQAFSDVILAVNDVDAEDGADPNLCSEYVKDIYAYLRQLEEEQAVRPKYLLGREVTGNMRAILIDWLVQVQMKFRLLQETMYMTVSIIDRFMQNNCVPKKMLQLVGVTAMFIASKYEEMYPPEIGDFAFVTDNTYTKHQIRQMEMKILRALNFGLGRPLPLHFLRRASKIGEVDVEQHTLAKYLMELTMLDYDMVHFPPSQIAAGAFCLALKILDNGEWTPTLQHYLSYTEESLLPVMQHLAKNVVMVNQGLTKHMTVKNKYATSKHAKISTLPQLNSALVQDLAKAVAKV
Experimental: as §1, §2, §3, §4, §5, §6

Chain of RPS6KA4 (MSK2) (O75676 whole entry): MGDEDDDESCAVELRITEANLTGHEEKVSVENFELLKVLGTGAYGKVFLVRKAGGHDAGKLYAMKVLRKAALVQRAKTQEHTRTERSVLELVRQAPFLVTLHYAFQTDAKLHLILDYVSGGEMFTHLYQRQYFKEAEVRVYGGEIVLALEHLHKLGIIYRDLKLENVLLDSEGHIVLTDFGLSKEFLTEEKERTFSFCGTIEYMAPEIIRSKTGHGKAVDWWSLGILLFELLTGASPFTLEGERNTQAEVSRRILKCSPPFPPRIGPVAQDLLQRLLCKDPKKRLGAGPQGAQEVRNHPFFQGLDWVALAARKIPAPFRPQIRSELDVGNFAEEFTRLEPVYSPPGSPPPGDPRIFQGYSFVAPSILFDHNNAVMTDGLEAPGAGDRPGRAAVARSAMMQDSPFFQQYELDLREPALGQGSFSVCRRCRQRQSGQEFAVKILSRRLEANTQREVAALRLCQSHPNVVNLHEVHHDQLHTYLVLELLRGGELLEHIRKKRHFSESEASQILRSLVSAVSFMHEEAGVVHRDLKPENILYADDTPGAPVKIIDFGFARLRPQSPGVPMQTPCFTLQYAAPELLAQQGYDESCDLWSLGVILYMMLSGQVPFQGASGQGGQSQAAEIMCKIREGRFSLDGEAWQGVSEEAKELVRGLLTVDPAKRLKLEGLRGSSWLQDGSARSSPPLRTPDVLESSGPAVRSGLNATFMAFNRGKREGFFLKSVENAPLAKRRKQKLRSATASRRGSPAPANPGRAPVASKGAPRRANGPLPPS
Chain of GRK5 (P34947 whole entry): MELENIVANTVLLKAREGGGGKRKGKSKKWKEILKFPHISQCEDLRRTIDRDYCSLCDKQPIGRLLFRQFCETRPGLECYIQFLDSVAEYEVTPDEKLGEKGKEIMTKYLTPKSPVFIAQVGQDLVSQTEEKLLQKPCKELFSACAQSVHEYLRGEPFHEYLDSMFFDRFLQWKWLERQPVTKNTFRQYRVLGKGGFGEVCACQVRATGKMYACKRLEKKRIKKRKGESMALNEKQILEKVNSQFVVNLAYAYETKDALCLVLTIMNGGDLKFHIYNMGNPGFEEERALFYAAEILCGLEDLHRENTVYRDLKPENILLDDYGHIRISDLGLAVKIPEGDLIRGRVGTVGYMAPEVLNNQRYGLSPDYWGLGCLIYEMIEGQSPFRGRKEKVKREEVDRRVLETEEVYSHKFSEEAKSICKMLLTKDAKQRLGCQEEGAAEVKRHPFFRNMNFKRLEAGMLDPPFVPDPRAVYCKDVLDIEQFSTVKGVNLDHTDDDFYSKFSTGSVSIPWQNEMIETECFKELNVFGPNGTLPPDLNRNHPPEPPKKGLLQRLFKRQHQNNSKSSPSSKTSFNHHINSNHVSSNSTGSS
Chain of GRK4 (P32298 whole entry): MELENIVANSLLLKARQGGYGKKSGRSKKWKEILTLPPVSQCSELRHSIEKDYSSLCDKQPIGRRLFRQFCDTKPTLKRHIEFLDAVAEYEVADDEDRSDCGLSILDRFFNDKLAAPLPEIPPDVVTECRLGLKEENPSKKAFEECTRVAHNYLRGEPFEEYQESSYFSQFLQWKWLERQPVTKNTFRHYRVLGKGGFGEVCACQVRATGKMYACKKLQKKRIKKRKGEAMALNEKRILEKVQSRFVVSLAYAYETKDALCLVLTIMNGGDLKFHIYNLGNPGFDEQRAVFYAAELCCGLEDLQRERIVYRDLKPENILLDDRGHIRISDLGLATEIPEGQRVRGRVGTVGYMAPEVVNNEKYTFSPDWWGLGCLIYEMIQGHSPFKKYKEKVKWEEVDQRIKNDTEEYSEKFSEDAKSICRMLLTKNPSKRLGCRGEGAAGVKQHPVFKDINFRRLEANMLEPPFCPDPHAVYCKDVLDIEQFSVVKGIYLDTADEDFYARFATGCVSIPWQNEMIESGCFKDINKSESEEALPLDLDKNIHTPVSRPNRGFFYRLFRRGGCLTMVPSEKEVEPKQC
Chain of MAPKAPK2 (P49137 whole entry): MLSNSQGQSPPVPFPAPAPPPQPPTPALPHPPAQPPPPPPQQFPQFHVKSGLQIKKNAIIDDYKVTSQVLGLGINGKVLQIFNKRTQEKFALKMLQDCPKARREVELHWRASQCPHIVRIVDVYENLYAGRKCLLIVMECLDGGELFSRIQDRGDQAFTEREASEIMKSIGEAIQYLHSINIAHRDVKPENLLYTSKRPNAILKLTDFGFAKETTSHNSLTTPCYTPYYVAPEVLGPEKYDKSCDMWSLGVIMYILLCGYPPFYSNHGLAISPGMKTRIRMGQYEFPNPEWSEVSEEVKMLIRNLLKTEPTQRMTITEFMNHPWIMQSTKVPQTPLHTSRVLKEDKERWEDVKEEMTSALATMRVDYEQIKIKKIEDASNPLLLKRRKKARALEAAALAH
Chain of PRKCB2 (PKC beta II) (P05771 1-673 isoform P05771-2): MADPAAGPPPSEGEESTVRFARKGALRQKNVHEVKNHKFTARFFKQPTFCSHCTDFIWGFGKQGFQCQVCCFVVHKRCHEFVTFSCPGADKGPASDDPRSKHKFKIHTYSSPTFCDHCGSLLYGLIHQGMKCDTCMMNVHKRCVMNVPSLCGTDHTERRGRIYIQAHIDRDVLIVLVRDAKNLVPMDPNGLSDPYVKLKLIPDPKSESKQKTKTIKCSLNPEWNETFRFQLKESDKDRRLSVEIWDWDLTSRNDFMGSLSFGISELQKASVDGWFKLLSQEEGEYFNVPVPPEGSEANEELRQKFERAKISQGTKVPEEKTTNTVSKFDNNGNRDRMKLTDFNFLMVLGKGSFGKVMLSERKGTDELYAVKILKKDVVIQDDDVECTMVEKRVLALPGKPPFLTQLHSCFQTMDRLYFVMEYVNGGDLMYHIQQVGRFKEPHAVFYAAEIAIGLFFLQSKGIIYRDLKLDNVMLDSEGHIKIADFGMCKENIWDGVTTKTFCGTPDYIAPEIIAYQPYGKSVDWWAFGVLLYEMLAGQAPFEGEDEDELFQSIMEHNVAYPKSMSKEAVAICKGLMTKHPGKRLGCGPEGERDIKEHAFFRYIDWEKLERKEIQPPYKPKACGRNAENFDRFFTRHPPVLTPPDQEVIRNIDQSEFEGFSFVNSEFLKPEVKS
Chain of TEK (Tie2) (Q02763 23-1124): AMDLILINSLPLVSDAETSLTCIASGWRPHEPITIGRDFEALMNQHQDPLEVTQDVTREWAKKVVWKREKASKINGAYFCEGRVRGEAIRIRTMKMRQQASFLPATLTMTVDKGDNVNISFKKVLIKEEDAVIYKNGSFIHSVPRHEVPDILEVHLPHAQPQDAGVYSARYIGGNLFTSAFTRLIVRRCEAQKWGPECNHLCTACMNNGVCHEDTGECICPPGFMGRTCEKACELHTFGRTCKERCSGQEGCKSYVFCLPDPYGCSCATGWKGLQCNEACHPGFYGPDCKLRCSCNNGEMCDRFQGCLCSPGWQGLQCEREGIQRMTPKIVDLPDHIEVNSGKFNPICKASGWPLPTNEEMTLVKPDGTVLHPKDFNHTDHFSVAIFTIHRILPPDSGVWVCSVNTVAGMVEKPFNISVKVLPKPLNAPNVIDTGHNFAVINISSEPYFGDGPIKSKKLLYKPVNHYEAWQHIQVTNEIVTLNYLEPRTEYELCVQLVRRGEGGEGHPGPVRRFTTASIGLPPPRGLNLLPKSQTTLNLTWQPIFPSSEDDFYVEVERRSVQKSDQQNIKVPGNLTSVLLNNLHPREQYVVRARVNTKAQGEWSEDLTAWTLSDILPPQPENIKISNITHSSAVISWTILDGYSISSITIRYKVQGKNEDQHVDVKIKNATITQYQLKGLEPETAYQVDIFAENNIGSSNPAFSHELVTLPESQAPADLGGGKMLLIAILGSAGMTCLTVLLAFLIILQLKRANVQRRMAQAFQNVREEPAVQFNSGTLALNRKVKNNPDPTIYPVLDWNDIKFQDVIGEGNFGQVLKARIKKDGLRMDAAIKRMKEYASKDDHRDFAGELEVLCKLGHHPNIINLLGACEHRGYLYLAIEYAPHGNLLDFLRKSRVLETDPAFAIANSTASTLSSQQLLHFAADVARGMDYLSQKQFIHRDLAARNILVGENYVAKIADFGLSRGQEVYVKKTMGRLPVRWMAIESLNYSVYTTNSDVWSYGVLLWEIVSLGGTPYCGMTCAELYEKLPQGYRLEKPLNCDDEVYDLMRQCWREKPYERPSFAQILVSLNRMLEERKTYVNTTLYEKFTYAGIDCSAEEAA

| SMILES | inhibition at 1 µM [1] | inhibition at 1 µM [2] | inhibition at 1 µM [3] | inhibition at 1 µM [4] | inhibition at 1 µM [5] | inhibition at 1 µM [6] | inhibition at 1 µM [7] | inhibition at 1 µM [8] | inhibition at 1 µM [9] | inhibition at 1 µM [10] | inhibition at 1 µM [11] |
| --- | --- | --- | --- | --- | --- | --- | --- | --- | --- | --- | --- |
| C=CC(=O)Nc1cccc(C(=O)NC2CCN(Cc3ccc(-c4nc5cc[nH]c(=O)c5cc4-c4ccccc4)cc3)CC2)c1 [30b] | -4% | 1% | 11% | 31% | -1% | 6% | 6% | -1% | 3% | 8% | 3% |
| C=CC(=O)Nc1cc(NC(=O)NC2CCN(Cc3ccc(-c4nc5cc[nH]c(=O)c5cc4-c4ccccc4)cc3)CC2)ccc1Cl [compound 27] | -1% | 4% | 16% | 33% | -12% | 11% | 5% | -2% | -1% | 4% | 3% |
| C=CC(=O)Nc1ccc2c(c1)n(C1CCN(Cc3ccc(-c4nc5cc[nH]c(=O)c5cc4-c4ccccc4)cc3)CC1)c(=O)n2C [24b] | -5% | 4% | 9% | 29% | -5% | -1% | 2% | -10% | -1% | -3% | 3% |
